Patent publication US10786522B2, “Compositions that include anthocyanidins and methods of use” (Maqui NewLife S.A., priority 2009, dated 2020)

Key:
[1] = tested on: Jurkat T cells; experiment: IL-2 production in Jurkat T cells (ELISA); format: cell-based
Experimental: (§1) 2×10^6 Jurkat T cells in RPMI medium were incubated for 48 hrs at 37° C., in 5% CO2 in the presence of vehicle control solution; or the T cell activator, phorbol 12-myristate 13-acetate/lonomycin (PMA/Io 2 ng/ml 1 uM); 50 μM of delphinidin; 50 μM delphinidin+PMA/Io; 50 μM cyanidin; or 50 μM cyaniding+PMA/Io. Then the supernatants were collected and IL-2 production was analyzed by ELISA using a commercial kit (Becton Dickinson, USA) according to the supplier's directions.
Then the supernatants were collected and analyzed using commercial ELISA kit (Becton Dickinson, USA) to measure IL-2 production according to the supplier's directions.
Jurkat T cells were incubated in either a vehicle control solution; 5 nM andrographolide; 50 μM delphinidin; or 5 nM andrographolide plus 50 μM delphinidin.

[2] = tested on: Human T cells; experiment: IL-2 production in freshly isolated human T cells (ELISA); format: cell-based; details: for Average IL-2 production / Percentage compared to the control (IL-2): 48 hrs
Experimental: (§2) The effect of delphinidin on IL-2 and INF-γ production was also assayed on freshly isolated human T cells. Human T cells were isolated from blood of healthy volunteers using Lymphoprep reagent. T cells (1×10^6) in RMPI medium were incubated for 48 hrs at 37° C., in 5% CO2 in the presence of a vehicle control solution; 50 μM delphinidin; 50 μM delphinidin+1 μM BTP-2; 50 μM delphinidin+5 μM BTP-2; 50 μM delphinidin+10 μM BTP-2; 1 μM BTP-2; 5 μM. BTP-2; or 10 μM BTP-2. Then the supernatants were collected and analyzed using commercial ELISA kit (Becton Dickinson, USA) to measure IL-2 and INF-γ production according to the supplier's directions.
We evaluated the effect of a combination of delphinidin and andandrographolide on IL-2 production in both freshly harvested human T cells and the Jurkat cell line. Andrographolide was prepared according to the method described in Example 4. Human T cells were isolated from blood of healthy volunteers using Lymphoprep reagent. T cells (1×10^6) in RMPI medium were incubated for 48 hrs at 37° C., in 5% CO2 in the presence of a vehicle control solution; 5 nM andrographolide; 50 μM delphinidin; or 5 nM andrographolide plus 50 μM delphinidin. Then the supernatants were collected and analyzed using commercial ELISA kit (Becton Dickinson, USA) to measure IL-2 production according to the supplier's directions.

[3] = tested on: Jurkat T cells; experiment: INF-γ production in Jurkat T cells (ELISA); format: cell-based; details: 48 hrs; for Average INF-γ production / Percentage vs. control (INF-γ): delphinidin 50 μM, cyanidin 50 μM, PMA/Io 2 ng/ml 1 uM
Experimental: as §1, with “We also explored the effect of delphinidin and cyanidin on Interferon-gamma (INF-γ) production in Jurkat T cells. 2×10^6” for “2×10^6”, “CO2. The samples were incubated” for “CO2”, “13-acetate/Ionomycin” for “13-acetate/lonomycin”, “IFN-γ” for “IL-2”

[4] = tested on: Jurkat T cells; experiment: Ca2+ fluxes in FURA 2-AM-loaded Jurkat T cells (spectrofluorimetry, medium with CaCl2); format: cell-based
Experimental: We evaluated the effect of delphinidin on intracellular calcium release in Jurkat T cells. Extracts were prepared according to the method of Example 1. Jurkat T cells in Hanks' Balanced Salt Solution (HBSS) medium (Invitrogen) with 0.9 mM of CaCl2 were loaded with Fura-2-acetoxymethyl ester (2.5 uM FURA 2-AM) for 30 min at 37° C., washed and incubated in 10 μM, 50 μM, and 100 μM delphinidin. The fluxes of Ca^2+ were measured as ratio of excitation at 340 and 380 nm, and emission at 509 nm, for 300 seconds, at 37° C. in a spectrofluorimeter (LS55, PerkinElmer).

[5] = tested on: Jurkat T cells; experiment: Calcium release in Jurkat T cells in HBSS calcium free medium; format: cell-based
Experimental: To measure calcium release, 4×10^6 FURA 2-AM-loaded Jurkat T cells were incubated in HBSS calcium free medium as decribed in Example 6. The cells were incubated in 50 uM delphinidin, or in 50 uM delphinidin and 10 μM N-[4-[3,5-bis(trifluoromethyl)-1H-pyrazol-1-yl]phenyl]-4-methyl-1,2,3-thiadiazole-5-carboxamide (BTP-2, a Store-Operated Calcium Entry (SOCE) inhibitor). The release of Ca^2+ was measured as ratio of excitation at 340 and 380 nm, and emission at 509 nm, for 200 seconds, at 37° C., in a spectrofluorimeter (LS55, PerkinElmer).
(§3) 4×10^6 FURA 2-AM-loaded Jurkat T cells were incubated in HBSS calcium free medium. The cells were then incubated in 50 uM delphinidin and the fluxes of Ca^2+ were measured as ratio of excitation at 340 and 380 nm, and emission at 509 nm, at 37° C. in a spectrofluorimeter (LS55, PerkinElmer).
4×10^6 FURA 2-AM-loaded Jurkat T cells were incubated in HBSS calcium free medium. The cells were then treated with vehicle alone or 50 or 100 uM U73122 for 10 minutes prior to incubation in 50 uM delphinidin. Ca^2+ flux was measured as ratio of excitation at 340 and 380 nm, and emission at 509 nm, at 37° C. in a spectrofluorimeter (LS55, PerkinElmer).

[6] = tested on: Jurkat T cells; experiment: Calcium entry (SOCE) in Jurkat T cells after addition of CaCl2; format: cell-based; details: 0.9 mM CaCl2 added after 200 seconds; delphinidin 50 μM, BTP-2 10 μM
Experimental: To measure calcium entry after 200 seconds, when the levels of calcium returned to the baseline, 0.9 mM of CaCl2 was added, and the fluxes of Ca^2+ were measured as ratio of excitation ratio at 340 and 380 nm, and emission at 509 nm in a spectrofluorimeter during 150 seconds.
as §3, with “were” for “were then”, “delphinidin or 50 uM delphinidin plus 10 μM BTP-2” for “delphinidin”

[7] = tested on: Human T cells; experiment: INF-γ production in freshly isolated human T cells (ELISA); format: cell-based
Experimental: as §2

[8] = tested on: Jurkat T cells; experiment: IL-2 production in Jurkat T cells (ELISA); format: cell-based; details: Table 9; 48 hrs; delphinidin 50 μM, CsA
[9] = tested on: PPAR-γ; experiment: PPAR-γ-Luc reporter assay in HL-60 cells; format: cell-based, Human; details: control substances, 12 h, concentration not given
Experimental: We examined the effect of delphindin-rich anthocyanidins on PPAR-γ activation. HL-60 cells in IMDM medium were transfected with the reporter vectors PPAR-γ-Luc (5 μg) (Panomics) and TK-RL (1 μg) (Promega) using Fugene 6 reagent (Roche), and cultured for 24 hr. Then, the cells were incubated for 12 h in 0.175, 1.75, or 17.5 μg/ml of delphindin-rich anthocyanidins, phorbol myristate acetate (PMA), 15-deoxi-d 12,14-prostaglandin J2 (PGj2), or tumor necrosis factor alpha (TNFα) as controls. Luciferase activity was measured using the Dual-Luciferase Reporter Assay kit (DLR) from Promega in a luminometer (Luminoskan).

[10] = Table 11, andrographolide 5 nM, delphinidin 50 μM
[11] = Table 10, andrographolide 5 nM, delphinidin 50 μM
[12] = andrographolide 5 nM, delphinidin 50 μM
[13] = Table 5, 48 hrs, delphinidin 50 μM, cyanidin 50 μM, PMA/Io 2 ng/ml 1 uM
[14] = calcium free medium, delphinidin 50 μM, BTP-2 10 μM
[15] = 48 hrs, 50 μM delphinidin alone

C=C1CC[C@@H]2[C@](C)(CO)[C@H](O)CC[C@@]2(C)[C@@H]1C/C=C1/C(=O)OC[C@H]1O [andrographolide]
Average IL-2 production [1, 10]: 0.0140 Abs 450 nm
Percentage compared to the control (IL-2) [1, 10]: 84.8%
Average IL-2 production [2, 11]: 85 pg/mL
Percentage compared to the control (IL-2) [2, 11]: 212.5%
IL-2 levels higher (Table 10) [2, 12]: 112%

Oc1cc(O)c2cc(O)c(-c3ccc(O)c(O)c3)[o+]c2c1 [cyanidin, Cyanidin]
IL-2 lower than control cells ([1]; 50 μM, 48 hrs): 10%
Average IL-2 production [1, 13]: 45 pg/mL
Percentage vs. control (IL-2) [1, 13]: 90%
INF-γ levels relative to control cells, result in words ([3]; 50 μM): about the same levels
Average INF-γ production [3]: 8 pg/mL
Percentage vs. control (INF-γ) [3]: 100%

Oc1cc(O)c2cc(O)c(-c3cc(O)c(O)c(O)c3)[o+]c2c1 [delphinidin, Delphinidin]
Average area under the curve of ratio 340/380 during 300 seconds ([4]; 10 μM delphinidin): 100
Percentage compared to control ([4]; 10 μM delphinidin): 166.7%
area under the curve higher than untreated control cells ([4]; 10 μM delphinidin): 66.7%
Average area under the curve of ratio 340/380 during 300 seconds ([4]; 50 μM delphinidin): 225
Percentage compared to control ([4]; 50 μM delphinidin): 375%
area under the curve higher than untreated control cells ([4]; 50 μM delphinidin): 275%
Average area under the curve of ratio 340/380 during 300 seconds ([4]; 100 μM delphinidin): 250
Percentage compared to control ([4]; 100 μM delphinidin): 416.7%
area under the curve higher than untreated control cells ([4]; 100 μM delphinidin): 316.7%
Ca2+ fluxes, result in words ([4]; 10, 50, 100 μM delphinidin): induced Ca^2+ fluxes in Jurkat T cells in a dose-dependent manner
calcium release (FIG. 1), result in words ([5]; 50 uM delphinidin, calcium free medium): induced reversible calcium release
Average AUC of ratio 340/380 during 200 seconds (calcium release) [5, 14]: 51
Percentage compared to the control (calcium release) [5, 14]: 1700%
AUC higher than untreated control cells (calcium release) ([5]; delphinidin 50 μM, BTP-2 10 uM): 1700%
Average AUC of ratio 340/380 150 sec. after calcium treatments (calcium entry) [6]: 70
Percentage compared to control (calcium entry) [6]: 184.2%
IL-2 levels higher than untreated control cells ([1]; 50 μM, 48 hrs): 240%
Average IL-2 production [1, 13]: 170 pg/mL
Percentage vs. control (IL-2) [1, 13]: 340%
Average IL-2 production [1, 10]: 0.023 Abs 450 nm
Percentage compared to the control (IL-2) [1, 10]: 139.4%
IL-2 levels higher (Table 11) [1, 12]: 39.4%
INF-γ levels higher than untreated control cells ([3]; 50 μM): 250%
Average INF-γ production [3]: 28 pg/mL
Percentage vs. control (INF-γ) [3]: 350%
Average IL-2 production ([2]; Table 7, 50 μM delphinidin alone): 370 pg/mL
Average IL-2 production [2, 11]: 87 pg/mL
Percentage compared to the control (IL-2) [2, 11]: 217.5%
IL-2 levels higher (Table 10) [2, 12]: 117%
INF-γ levels higher than untreated control cells ([7]; 50 μM delphinidin): 950%
Average INF-γ production [7, 15]: 3900 pg/mL
Percentage vs. control (INF-γ) [7, 15]: 1054.1%
Average IL-2 production [8]: 240 pg/mL

tumor necrosis factor alpha [TNFα]
Average percentage activity of control [PPAR-γ-Luc/TK-RL] ± SD [9]: 283.4 ± 47.23%
